Measurements published in patent publication US5969098A, “Yeast-toxin-related protein for antimicrobial vaccine and sterilizing preservative use” (CyberChemics, Inc., priority 1997, dated 1999).
Where no end group is shown, it is not given here.

tested on: human red blood cells; assay: hemolysis of human red blood cells in whole blood (extracellular hemoglobin, spectrophotometric); format: cell-based; conditions: human red blood cells exposed in whole blood, peptide concentration 63 ug/mL
Description: Table III lists the approximate pharmacokinetics of synthetic peptides described in the present invention which solubilize readily, persist in conformationally active secondary structures in vivo, and induce lysis of representative bacteria, yeast and fungi. These determinations derive from optical density readings (O.D.) and rely on spectrophotometric absorbance from known initial concentrations as reference standards. It is worth noting that although the peptide antimicrobials show 30+% homology with the yeast killer toxin beta subunit fragment, they have very favorable safety profiles on mammalian cells. For example, when human red blood cells are exposed in whole blood to SEQ. […] Perhaps, as significant, the safety profile derives from very specific amino acid substitutions, since substitution for less than 20% of the amino acids in SEQ. 1 renders SEQ. 2 hemolytic to 20% at 63 ug/mL and 35% substitution in SEQ. 1 renders SEQ. 3 hemolytic to 100%. Therefore, sequence identity and variation translate directly to the functional balance between microbial inhibition and mammalian safety. The optimal therapeutic index for dosage and effective antimicrobial inhibition of a particular polypeptide or salt thereof follow routinely without elaborate laboratory determinations by those skilled in the art of pharmacokinetics and metabolic pathways using, for instance, various cytochrome and liver enzymes in vivo.

Sequence | hemolysis
LLLLKKLLKLMNLLKKLGHY [SEQ. 3] | 100%
LLLLKLLLKKNPKLKKLIGV [SEQ. 2] | 20%
LVLLKKLMKKYKKLKKLGGL [SEQ. 1] | no hemolysis is detectable
